Assays:
TTK = molecular target: T1, TTK (Homo sapiens, UniProt P33981); experiment: TTK inhibition assay ([γ-33P]ATP transfer to phosphorylated MBP); assay type: biochemical; design: A. Recombinant TTK enzyme; details: read-out: inhibition of the protein kinase activity of TTK, IC50
T1 sequence (P33981 1-857): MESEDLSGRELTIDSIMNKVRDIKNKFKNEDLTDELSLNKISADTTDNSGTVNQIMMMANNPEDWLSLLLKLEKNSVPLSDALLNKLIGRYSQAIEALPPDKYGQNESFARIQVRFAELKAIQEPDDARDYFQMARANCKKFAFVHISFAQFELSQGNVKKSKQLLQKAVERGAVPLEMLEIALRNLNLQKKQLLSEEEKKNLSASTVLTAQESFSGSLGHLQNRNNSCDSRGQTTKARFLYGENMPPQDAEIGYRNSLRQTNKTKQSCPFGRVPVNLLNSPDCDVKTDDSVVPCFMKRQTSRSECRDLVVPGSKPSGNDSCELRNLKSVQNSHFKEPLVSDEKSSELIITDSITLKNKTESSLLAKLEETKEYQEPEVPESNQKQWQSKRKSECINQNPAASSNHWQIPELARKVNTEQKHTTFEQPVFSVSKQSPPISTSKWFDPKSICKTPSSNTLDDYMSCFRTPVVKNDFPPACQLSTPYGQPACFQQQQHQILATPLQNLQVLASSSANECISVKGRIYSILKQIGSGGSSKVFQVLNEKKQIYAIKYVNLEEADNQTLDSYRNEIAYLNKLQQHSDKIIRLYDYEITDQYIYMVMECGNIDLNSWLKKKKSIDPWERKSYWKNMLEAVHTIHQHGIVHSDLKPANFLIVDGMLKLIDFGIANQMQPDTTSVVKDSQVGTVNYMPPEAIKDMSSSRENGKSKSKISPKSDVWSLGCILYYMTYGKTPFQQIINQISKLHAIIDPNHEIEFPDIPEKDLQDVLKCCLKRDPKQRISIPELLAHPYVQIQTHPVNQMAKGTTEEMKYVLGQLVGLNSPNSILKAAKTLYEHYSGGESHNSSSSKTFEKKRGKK
Protocol: The compounds of the invention were also tested in the following assay to determine TTK-inhibitory activity. This assay measures transfer of radioactive phosphate from ATP to a protein substrate in the presence or absence of a test compound.
MATERIALS: • A. Recombinant TTK enzyme; • B. Phosphorylated myelin basic protein (MBP); • C. [γ-^33P]ATP: 1 mCi/100 μL; • D. Positive Control: a proprietary compound known to have […] in this assay.
Final concentrations of reaction mixture components (50 μl total volume): 50 mM Tris-HCl, pH 7.5; 0.01% Triton X-100; 10 mM MgCl2; 25 ng TTK (˜4 nM); 5 μM Phosphorylated MBP; 40 μM ATP (1 μCi/well, adjusted ATP specific activity according to strength of radiolabeled ATP).
Mixes were assembled in the wells of a 96-well polypropylene plate as follows: 1 μL 50× compound to be tested; 39 μL 1.282× Reaction Mix; 10 μL 5×ATP Mix.
The following reaction/assay steps were then performed: • 1. Mix thoroughly and incubate at room temperature for 45 minutes; • 2. Add 70 μL/well, except in background wells, of 3% phosphoric acid to terminate reaction, and transfer 100 μL to P81 filter plate; • 3. Wash with 1% phosphoric acid, then dry the P81 filter plate completely; • 4. Add 100 μL/well MicroSint-20 (PerkinElmer #6013621) and seal; • 5.

JNK = JNK (Homo sapiens, UniProt P45983); experiment: In vitro binding assays
JAK1 = molecular target: T2, JAK1 (Homo sapiens, UniProt P23458); experiment: In vitro binding assays
T2 construct: Cellular proteins were prepared by mild sonication in lysis buffer; endogenous in cells

Aurora A = molecular target: T3, Aurora A (Homo sapiens, UniProt O14965); experiment: In vitro binding assays
T3 sequence (O14965 1-403): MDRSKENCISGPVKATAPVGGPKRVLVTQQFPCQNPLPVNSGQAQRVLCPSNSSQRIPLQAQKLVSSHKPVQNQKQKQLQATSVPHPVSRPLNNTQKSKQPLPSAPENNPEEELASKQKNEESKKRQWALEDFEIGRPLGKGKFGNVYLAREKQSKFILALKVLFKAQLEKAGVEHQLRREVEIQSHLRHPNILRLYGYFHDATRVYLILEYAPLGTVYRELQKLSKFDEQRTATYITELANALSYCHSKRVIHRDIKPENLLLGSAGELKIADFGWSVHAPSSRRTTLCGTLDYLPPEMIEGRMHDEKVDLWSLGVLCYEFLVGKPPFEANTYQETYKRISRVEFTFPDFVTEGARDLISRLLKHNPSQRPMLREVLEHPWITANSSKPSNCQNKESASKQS

T2 sequence (P23458 whole entry, species assumed): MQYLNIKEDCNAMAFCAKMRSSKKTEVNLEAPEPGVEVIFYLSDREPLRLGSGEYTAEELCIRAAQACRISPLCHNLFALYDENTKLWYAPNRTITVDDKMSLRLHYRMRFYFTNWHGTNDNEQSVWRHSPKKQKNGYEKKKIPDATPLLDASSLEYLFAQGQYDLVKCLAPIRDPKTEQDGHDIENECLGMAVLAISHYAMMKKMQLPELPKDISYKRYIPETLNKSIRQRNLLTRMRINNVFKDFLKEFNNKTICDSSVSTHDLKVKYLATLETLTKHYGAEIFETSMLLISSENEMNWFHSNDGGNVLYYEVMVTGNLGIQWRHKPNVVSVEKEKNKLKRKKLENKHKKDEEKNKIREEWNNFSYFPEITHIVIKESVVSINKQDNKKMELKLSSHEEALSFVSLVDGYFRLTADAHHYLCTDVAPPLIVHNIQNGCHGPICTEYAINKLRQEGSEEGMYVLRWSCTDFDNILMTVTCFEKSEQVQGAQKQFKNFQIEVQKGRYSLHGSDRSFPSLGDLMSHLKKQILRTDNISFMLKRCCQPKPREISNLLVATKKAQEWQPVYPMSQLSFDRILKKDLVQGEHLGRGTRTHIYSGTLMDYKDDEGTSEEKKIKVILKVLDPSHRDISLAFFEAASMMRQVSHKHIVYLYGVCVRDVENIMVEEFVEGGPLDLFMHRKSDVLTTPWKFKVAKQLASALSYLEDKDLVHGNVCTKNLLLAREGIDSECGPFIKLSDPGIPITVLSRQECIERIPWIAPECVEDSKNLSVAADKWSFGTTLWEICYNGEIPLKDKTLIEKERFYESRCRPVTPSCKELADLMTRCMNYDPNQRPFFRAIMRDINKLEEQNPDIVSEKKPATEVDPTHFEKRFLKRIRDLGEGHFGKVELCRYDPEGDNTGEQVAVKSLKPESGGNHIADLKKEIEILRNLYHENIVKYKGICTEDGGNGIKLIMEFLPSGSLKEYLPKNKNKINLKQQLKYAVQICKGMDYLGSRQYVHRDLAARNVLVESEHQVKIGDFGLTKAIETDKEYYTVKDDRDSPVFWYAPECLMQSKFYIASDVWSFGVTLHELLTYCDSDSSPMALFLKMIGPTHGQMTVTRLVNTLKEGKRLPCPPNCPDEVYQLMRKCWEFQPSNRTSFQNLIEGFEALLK
Chain of JNK (P45983 whole entry): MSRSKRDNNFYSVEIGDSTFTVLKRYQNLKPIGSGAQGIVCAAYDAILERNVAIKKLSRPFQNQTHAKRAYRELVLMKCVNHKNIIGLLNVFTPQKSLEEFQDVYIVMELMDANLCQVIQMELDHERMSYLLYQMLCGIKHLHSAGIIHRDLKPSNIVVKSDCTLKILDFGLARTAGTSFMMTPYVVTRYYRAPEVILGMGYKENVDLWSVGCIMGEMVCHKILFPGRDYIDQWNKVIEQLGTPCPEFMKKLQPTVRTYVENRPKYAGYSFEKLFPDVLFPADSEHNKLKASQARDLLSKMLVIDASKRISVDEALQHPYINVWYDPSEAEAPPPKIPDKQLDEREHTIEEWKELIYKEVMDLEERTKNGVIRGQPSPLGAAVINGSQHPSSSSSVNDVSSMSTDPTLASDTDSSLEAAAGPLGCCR

How did the IC50 (TTK) turn out when NCCCOc1ccc(Nc2nc(NC3CCCCC3)c3nc[nH]c3n2)cc1 [N2-[4-(3-aminopropoxy)phenyl]-N-6-cyclohexyl-9H-purine-2,6-diamine] was run?
The IC50 was 8 nM.

And the IC50 (JNK)?
Its IC50 is 57 nM.

And the IC50 (JAK1)?
Its IC50 is 320 nM.

And the IC50 (Aurora A)?
Its IC50 is 420 nM.
